Molecules are shown by their SMILES. A value given as a limit tells only on which side of the number the result lay.

This experiment deals with T1, androgen receptor (Homo sapiens, UniProt P10275).
T1 sequence (P10275 1-920 Q868H): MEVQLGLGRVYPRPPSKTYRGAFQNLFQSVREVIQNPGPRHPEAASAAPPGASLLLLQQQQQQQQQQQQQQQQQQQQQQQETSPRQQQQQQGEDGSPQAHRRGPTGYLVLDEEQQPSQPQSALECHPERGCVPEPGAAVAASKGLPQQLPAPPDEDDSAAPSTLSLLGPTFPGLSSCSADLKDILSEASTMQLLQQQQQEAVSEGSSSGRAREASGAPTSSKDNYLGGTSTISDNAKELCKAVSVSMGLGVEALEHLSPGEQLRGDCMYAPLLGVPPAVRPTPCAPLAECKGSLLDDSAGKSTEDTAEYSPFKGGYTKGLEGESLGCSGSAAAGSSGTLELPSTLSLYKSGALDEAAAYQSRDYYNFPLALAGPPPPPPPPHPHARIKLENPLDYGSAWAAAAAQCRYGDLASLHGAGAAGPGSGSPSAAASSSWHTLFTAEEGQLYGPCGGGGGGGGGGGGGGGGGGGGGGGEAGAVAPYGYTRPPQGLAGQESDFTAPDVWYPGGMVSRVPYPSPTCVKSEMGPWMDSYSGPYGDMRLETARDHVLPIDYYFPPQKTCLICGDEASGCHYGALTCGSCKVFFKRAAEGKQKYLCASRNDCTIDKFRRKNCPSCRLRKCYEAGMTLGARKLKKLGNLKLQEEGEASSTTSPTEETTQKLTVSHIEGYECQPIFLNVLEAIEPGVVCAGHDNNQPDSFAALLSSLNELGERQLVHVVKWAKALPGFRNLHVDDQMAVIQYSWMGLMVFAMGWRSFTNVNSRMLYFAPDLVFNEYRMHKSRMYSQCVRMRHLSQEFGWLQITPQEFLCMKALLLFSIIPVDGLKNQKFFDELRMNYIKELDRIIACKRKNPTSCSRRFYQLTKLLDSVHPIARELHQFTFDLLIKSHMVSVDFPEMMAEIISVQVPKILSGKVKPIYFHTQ
Briefly: AR Antagonist Cell Assay (MMTV-luciferase reporter, DHT-induced). It counts as cell-based. To be noted: MDA-MB453-MMTV clone 54-19 cells, 100 pM DHT, 17 hr. On the procedure:
The compounds ability to antagonize the effects of androgen on the androgen receptor were determined in the protocol described immediately below.
Experimental Procedure for AR Antagonist Cell Assay
Cell line: MDA-MB453-MMTV clone 54-19. This cell line is a stable transfected cell line with MDA-MB453 cell background (human breast tumor cell expressing high level of androgen receptor). A MMTV minimal promoter containing ARE was first cloned in front of a firefly luciferase reporter gene. Then the cascade was cloned into transfection vector pUV120puro. Electroporation method was used for transfecting MDA-MB-453 cell. Puromycin resistant stable cell line was selected.
Cell Culture Media and Reagents:
Culture medium: DMEM (high glucose, Gibco cat #: 11960-044), 10% FBS, and 1% L-glutamine
Plating medium: DMEM (phenol red free), 10% charcoal treated HyClone serum, 1% L-glutamine
Assay medium: DMEM (phenol red free), 1% charcoal treated HyClone serum, 1% L-glutamine, and 1% penicillin/streptomycin
3× luciferase buffer: 2% beta-mercaptoethanol, 0.6% ATP, 0.0135% luciferine in cell lysis buffer
• 1. Cells are maintained in culture medium, splitting cells when they reach 80–90% confluence • 2. To test compounds, 10,000 cells/well are plated to opaque 96 cell culture plate in 100 ul/well plating medium, culture for overnight at 37° C. in cell culture incubator • 3. Carefully remove plating medium, then add 80 ul/well of pre-warmed assay medium, add 10 ul/well testing compound (final concentration at 10 uM or 1 uM), incubate at 37° C. for 30 minutes • 4. Add 10 ul/well freshly prepared DHT (final concentration at 100 pM) to each well, incubate at 37° C. for 17 hr (overnight) • 5. Add 50 ul/well 3× luciferase buffer, incubate at room temperature for 5 minutes, then count on Luminometer The fold induction over background by 100 pM DHT in the absence of testing compounds is standardized as 100% and experimental result is expressed as percentage of inhibition by testing compounds. TABLE3
As usually defined, the IC50 is the midpoint of a concentration-inhibition curve. Low readings indicate higher potency, high ones lower potency. In the case of `O=c1cc(C(F)(F)F)c2cc(S(=O)(=O)NCc3ccc(F)cc3Cl)ccc2[nH]1` [Example 140, 2-Oxo-4-trifluoromethyl-1,2-dihydroquinoline-6-sulfonic acid2-chloro-4-fluorobenzylamide], it took 5650 nM to reach half-maximal inhibition (IC50).

On to `CN(C)CCN(C)S(=O)(=O)c1ccc2[nH]c(=O)cc(C(F)(F)F)c2c1` [Example 72], for which the IC50 is > 10000 nM.

In the case of `C#Cc1ccc(NS(=O)(=O)c2ccc3[nH]c(=O)cc(C(F)(F)F)c3c2)cc1` [Example 86, 2-Oxo-4-trifluoromethyl-1,2-dihydroquinoline-6-sulfonic acid(4-ethynylphenyl)amide], 450 nM corresponded to half-maximal inhibition (IC50).

Consider `O=c1cc(C(F)(F)F)c2cc(S(=O)(=O)NCCSCc3c(F)cccc3Cl)ccc2[nH]1` [Example 154, 2-Oxo-4-trifluoromethyl-1,2-dihydroquinoline-6-sulfonic acid[2-(2-chloro-6-fluorobenzylsulfanyl)ethyl]amide], for which half-maximal inhibition (IC50) was put at 2180 nM. Compared with the last compound, the IC50 is about 4.8-fold higher.

Take `CCCCN(CCO)S(=O)(=O)c1ccc2c(c1)c(C(F)(F)F)cc(=O)n2C` [Example 5, 1-Methyl-2-oxo-4-trifluoromethyl-1,2-dihydroquinoline-6-sulfonicacid butyl(2-hydroxyethyl)-amide]: the IC50 was > 10000 nM.

As to `Cn1c(=O)cc(C(F)(F)F)c2cc(S(=O)(=O)Nc3cccc(C(F)(F)F)c3)ccc21` [Example 39, 1-Methyl-2-oxo-4-trifluoromethyl-1,2-dihydroquinoline-6-sulfonicacid (3-trifluoromethylphenyl)-amide], 930 nM corresponded to half-maximal inhibition (IC50).

Turning to `CC(C)(C)CCNS(=O)(=O)c1ccc2[nH]c(=O)cc(C(F)(F)F)c2c1` [Example 122, 2-Oxo-4-trifluoromethyl-1,2-dihydroquinoline-6-sulfonic acid(3,3-dimethylbutyl)amide], the IC50 is 1030 nM.

`Cn1c(=O)cc(C(F)(F)F)c2cc(S(=O)(=O)NCCSC(C)(C)C)ccc21` [Example 61, 1-Methyl-2-oxo-4-trifluoromethyl-1,2-dihydroquinoline-6-sulfonicacid (2-tert-butylsulfanylethyl)amide]: the 50% inhibitory concentration (IC50) turned out to be 1530 nM.

For `CCc1ccc(NS(=O)(=O)c2ccc3[nH]c(=O)cc(C(F)(F)F)c3c2)cc1` [Example 89, 2-Oxo-4-trifluoromethyl-1,2-dihydroquinoline-6-sulfonic acid(4-ethylphenyl)amide], inhibition was half-maximal at 360 nM (IC50).

`O=c1cc(C(F)(F)F)c2cc(S(=O)(=O)NC3CCc4ccccc43)ccc2[nH]1` (stereo not drawn) [Example 130, 2-Oxo-4-trifluoromethyl-1,2-dihydroquinoline-6-sulfonic acidindan-1-ylamide] gave an IC50 of 1030 nM.

Turning to `COCCN(CCOC)S(=O)(=O)c1ccc2[nH]c(=O)cc(C(F)(F)F)c2c1` [Example 80, 2-Oxo-4-trifluoromethyl-1,2-dihydroquinoline-6-sulfonic acidbis(2-methoxyethyl)amide], the IC50 is > 10000 nM.

Turning to `CCCCCN(CCO)S(=O)(=O)c1ccc2[nH]c(=O)cc(C(F)(F)F)c2c1` [Example 74, 2-Oxo-4-trifluoromethyl-1,2-dihydroquinoline-6-sulfonic acid(2-hydroxyethyl)-pentylamide], half-maximal inhibition (IC50) required 290 nM.

As to `C#Cc1ccc(NS(=O)(=O)c2ccc3c(c2)c(C(F)(F)F)cc(=O)n3C)cc1` [Example 15, 1-Methyl-2-oxo-4-trifluoromethyl-1,2-dihydroquinoline-6-sulfonicacid (4-ethynylphenyl)amide], half-maximal inhibition (IC50) required 1170 nM.

Consider `CCCCCN(CCO)S(=O)(=O)c1ccc2c(c1)c(C(F)(F)F)cc(=O)n2C` [Example 7, 1-Methyl-2-oxo-4-trifluoromethyl-1,2-dihydroquinoline-6-sulfonicacid (2-hydroxyethyl)-pentylamide], for which the IC50 was > 10000 nM.

The compound `O=c1cc(C(F)(F)F)c2cc(S(=O)(=O)Nc3cccc(OC(F)(F)F)c3)ccc2[nH]1` [Example 112, 2-Oxo-4-trifluoromethyl-1,2-dihydroquinoline-6-sulfonic acid(3-trifluoromethoxyphenyl)amide] yielded an IC50 of 120 nM.

For `CC(C)(NS(=O)(=O)c1ccc2oc(=O)cc(C(F)(F)F)c2c1)c1ccccc1` [Example 65, 2-Oxo-4-trifluoromethyl-2H-chromene-6-sulfonic acid (1-methyl-1-phenylethyl)amide], the IC50 is > 10000 nM.

`CSc1n[nH]c(NS(=O)(=O)c2ccc3c(c2)c(C(F)(F)F)cc(=O)n3C)c1C#N` [Example 35, 1-Methyl-2-oxo-4-trifluoromethyl-1,2-dihydroquinoline-6-sulfonicacid (4-cyano-5-methylsulfanyl-2H-pyrazol-3-yl)amide]: the IC50 was > 10000 nM.

In turn, `CN(CCc1ccccc1)S(=O)(=O)c1ccc2[nH]c(=O)cc(C(F)(F)F)c2c1` [Example 78, 2-Oxo-4-trifluoromethyl-1,2-dihydroquinoline-6-sulfonic acidmethylphenethylamide] returned an IC50 of 150 nM.

Compound `COc1cc(NS(=O)(=O)c2ccc3c(c2)c(C(F)(F)F)cc(=O)n3C)cc(OC)c1` [Example 36, 1-Methyl-2-oxo-4-trifluoromethyl-1,2-dihydroquinoline-6-sulfonicacid (3,5-dimethoxyphenyl)-amide] displayed an IC50 of 2720 nM.

`Cn1c(=O)cc(C(F)(F)F)c2cc(S(=O)(=O)Nc3ccc4c(c3)CCC4)ccc21` [Example 22, 1-Methyl-2-oxo-4-trifluoromethyl-1,2-dihydroquinoline-6-sulfonicacid indan-5-ylamide] yielded an IC50 of 4470 nM. This IC50 is about 1.6-fold higher than that of the compound before.

`O=c1cc(C(F)(F)F)c2cc(S(=O)(=O)NCc3cc(C(F)(F)F)ccc3F)ccc2[nH]1` [Example 158, 2-Oxo-4-trifluoromethyl-1,2-dihydroquinoline-6-sulfonic acid2-fluoro-5-trifluoromethylbenzylamide] came in with an IC50 of 6610 nM.

Compound `CC(CNS(=O)(=O)c1ccc2[nH]c(=O)cc(C(F)(F)F)c2c1)c1ccccc1` (stereo not drawn) [Example 131, 2-Oxo-4-trifluoromethyl-1,2-dihydroquinoline-6-sulfonic acid(2-phenylpropyl)amide] returned an IC50 of 350 nM.

As for `Cn1c(=O)cc(C(F)(F)F)c2cc(S(=O)(=O)Nc3cc(C(C)(C)C)cc(C(C)(C)C)c3)ccc21` [Example 45, 1-Methyl-2-oxo-4-trifluoromethyl-1,2-dihydroquinoline-6-sulfonicacid (3,5-di-tert-butylphenyl)amide], the IC50 is > 10000 nM.

`O=c1cc(C(F)(F)F)c2cc(S(=O)(=O)Nc3ccc(F)cc3)ccc2[nH]1` [Example 84, 2-Oxo-4-trifluoromethyl-1,2-dihydroquinoline-6-sulfonic acid(4-fluorophenyl)amide] showed an IC50 of 7080 nM.

In the case of `Cc1ccc(F)c(CNS(=O)(=O)c2ccc3[nH]c(=O)cc(C(F)(F)F)c3c2)c1Cl` [Example 152, 2-Oxo-4-trifluoromethyl-1,2-dihydroquinoline-6-sulfonic acid2-chloro-6-fluoro-3-methylbenzylamide], the IC50 was > 10000 nM.

In turn, `Cn1c(=O)cc(C(F)(F)F)c2cc(S(=O)(=O)Nc3ccc(CC#N)cc3)ccc21` [Example 21, 1-Methyl-2-oxo-4-trifluoromethyl-1,2-dihydroquinoline-6-sulfonicacid (4-cyanomethylphenyl)amide] came in with an IC50 of 990 nM. This counts as sub-micromolar.

In the case of `CCN(Cc1ccccc1)S(=O)(=O)c1ccc2c(c1)c(C(F)(F)F)cc(=O)n2C` [Example 10, 1-Methyl-2-oxo-4-trifluoromethyl-1,2-dihydroquinoline-6-sulfonicacid benzylethylamide], inhibition was half-maximal at 6350 nM (IC50).
